Laboratory results from ChEMBL document CHEMBL5523762, “Discovery of Potent and Selective G9a Degraders for the Treatment of Pancreatic Cancer” (J Med Chem, 2024).
Activity calls are given as the source filed them. The calls are words filed in the database; no cut-off is given here.

Tests used:
ASPC1 [1] = test: Downregulation of H3K9me2 level in human ASPC1 cells at 10 uM incubated for 24 hrs in presence of 1 uM MRTX1133 by Western blot analysis; type: functional, cell-based
[2] = target: T1, Protein cereblon/Histone-lysine N-methyltransferase EHMT2 (Homo sapiens, UniProt Q96KQ7+Q96SW2); test: PROTAC activity at CRBN/G9a in human PANC-1 cells assessed as induction of G9a degradation at 1 uM in presence of 50 uM cycloheximide measured after 4 hrs by Western blot analysis; type: cell-based
Target sequence in this assay (Q96KQ7 2-1210 limits assumed): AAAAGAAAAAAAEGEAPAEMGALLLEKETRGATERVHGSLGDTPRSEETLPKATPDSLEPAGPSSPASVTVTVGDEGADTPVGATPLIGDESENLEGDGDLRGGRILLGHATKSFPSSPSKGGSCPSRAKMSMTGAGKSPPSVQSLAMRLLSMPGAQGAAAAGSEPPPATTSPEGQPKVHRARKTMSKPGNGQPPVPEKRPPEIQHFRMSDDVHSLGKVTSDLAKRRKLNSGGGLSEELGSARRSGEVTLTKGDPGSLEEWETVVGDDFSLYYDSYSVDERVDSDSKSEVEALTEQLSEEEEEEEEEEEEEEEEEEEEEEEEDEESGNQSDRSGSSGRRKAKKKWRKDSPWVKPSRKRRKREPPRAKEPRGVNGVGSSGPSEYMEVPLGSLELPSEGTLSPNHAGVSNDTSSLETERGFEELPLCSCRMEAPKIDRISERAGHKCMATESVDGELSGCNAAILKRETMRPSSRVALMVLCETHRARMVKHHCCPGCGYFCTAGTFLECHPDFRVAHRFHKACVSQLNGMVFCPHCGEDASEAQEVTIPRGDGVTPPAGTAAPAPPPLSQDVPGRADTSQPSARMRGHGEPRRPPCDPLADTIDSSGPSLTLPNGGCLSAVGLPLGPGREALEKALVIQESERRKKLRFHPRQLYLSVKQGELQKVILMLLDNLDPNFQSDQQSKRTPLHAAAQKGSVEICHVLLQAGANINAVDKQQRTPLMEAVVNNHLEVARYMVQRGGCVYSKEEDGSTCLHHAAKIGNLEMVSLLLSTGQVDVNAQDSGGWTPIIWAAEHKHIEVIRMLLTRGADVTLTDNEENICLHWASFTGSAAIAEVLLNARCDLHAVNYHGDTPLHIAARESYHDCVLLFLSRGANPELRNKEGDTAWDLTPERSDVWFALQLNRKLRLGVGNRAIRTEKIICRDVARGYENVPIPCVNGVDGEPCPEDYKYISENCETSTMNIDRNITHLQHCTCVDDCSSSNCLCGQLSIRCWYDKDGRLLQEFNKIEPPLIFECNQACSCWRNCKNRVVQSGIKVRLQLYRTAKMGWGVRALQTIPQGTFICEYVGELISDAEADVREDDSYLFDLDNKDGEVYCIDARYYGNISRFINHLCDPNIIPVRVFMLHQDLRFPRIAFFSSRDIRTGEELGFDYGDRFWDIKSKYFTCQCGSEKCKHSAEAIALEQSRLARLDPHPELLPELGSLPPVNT
Target sequence in this assay (Q96SW2 whole entry partner): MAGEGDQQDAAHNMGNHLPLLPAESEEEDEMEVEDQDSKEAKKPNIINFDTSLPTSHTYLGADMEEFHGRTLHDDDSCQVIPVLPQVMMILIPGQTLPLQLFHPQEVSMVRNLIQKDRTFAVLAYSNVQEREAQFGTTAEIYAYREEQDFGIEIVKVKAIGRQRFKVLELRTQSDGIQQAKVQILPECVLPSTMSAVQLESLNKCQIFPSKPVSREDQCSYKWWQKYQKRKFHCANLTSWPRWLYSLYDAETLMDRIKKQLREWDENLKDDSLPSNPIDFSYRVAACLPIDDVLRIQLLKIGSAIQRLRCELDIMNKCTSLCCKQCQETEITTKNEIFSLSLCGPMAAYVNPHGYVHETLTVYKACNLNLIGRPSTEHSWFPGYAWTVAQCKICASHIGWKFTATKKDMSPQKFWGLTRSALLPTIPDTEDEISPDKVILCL

[3] = target: T2, Protein cereblon/Histone-lysine N-methyltransferase EHMT1 (Homo sapiens) (UniProt Q9H9B1+Q96SW2); test: PROTAC activity at CRBN/GLP in human ASPC1 cells assessed as induction of GLP degradation at 0.008 to 20 uM measured after 8 hrs by Western blot analysis; type: cell-based; settings: dose 0.008-20 µM
PANC-1 [4] = test: Downregulation of H3K9me2 expression in human PANC-1 cells at 0.1 to 10 uM measured after 24 hrs by Western blot analysis; type: functional, cell-based; settings: dose 0.1-10 µM
KP-4 [5] = test: Synergistic antiproliferative activity against human KP-4 cells assessed as combination index for ED90 upto 20 uM incubated for 72 hrs in presence of MRTX1133; type: functional
Panc 02.03 [6] = test: Synergistic antiproliferative activity against human Panc 02.03 cells assessed as combination index upto 20 uM incubated for 72 hrs in presence of MRTX1133; type: functional
Panc 04.03 = test: Antiproliferative activity against human Panc 04.03 cells assessed as inhibition of cell growth measured after 72 hrs by SRB assay; type: functional, cell-based
ASPC1 [7] = test: Synergistic antiproliferative activity against human ASPC1 cells at 0 to 15 uM incubated for 72 hrs in presence of MRTX1133 by SRB assay; type: functional, cell-based; settings: dose 0-15 µM
PANC-1 [8] = test: Effect on G9a mRNA expression at transcriptional level in human PANC-1 cells at 0.1 to 10 uM by RT-qPCR analysis; type: functional, cell-based; settings: dose 0.1-10 µM
[9] = target: T2, Protein cereblon/Histone-lysine N-methyltransferase EHMT1 (Homo sapiens); test: PROTAC activity at CRBN/GLP in human PANC-1 cells assessed as downregulation of GLP protein level at 1 uM in presence of 50 uM cycloheximide measured after 0 to 16 hrs by […]; type: cell-based; settings: time 0-16 hrs
[10] = Bioavailability in male ICR mouse at 20 mg/kg, ip measured upto 24 hrs by LC-MS/MS analysis; type: ADME, organism-based; settings: in vivo
KP-4 [11] = test: Induction of apoptosis in human KP-4 cells at 10 uM incubated for 24 hrs in presence of 5 uM MRTX1133 by Annexin V-FITC/PI staining based flow cytometry analysis; type: functional, cell-based
[12] = target: T1, Protein cereblon/Histone-lysine N-methyltransferase EHMT2; test: PROTAC activity at CRBN/G9a in human PANC-1 cells assessed as induction of G9a degradation at 1 uM pretreated with MLN4924 for 2 hrs followed by compound addition and measured after 8 hrs by Western blot analysis; type: cell-based
Target sequence in this assay (Q96KQ7 2-1210 limits assumed): as the sequence (Q96KQ7 2-1210 limits assumed) above
Target sequence in this assay (Q96SW2 whole entry partner): as the sequence (Q96SW2 whole entry partner) above

HPAF-II [13] = test: Antiproliferative activity against human HPAF-II cells assessed as inhibition of cell growth measured after 72 hrs by SRB assay; type: functional, cell-based
ASPC1 [14] = test: Sensitization of human ASPC1 cells to MRTX1133 assessed as upregulation of gammaH2AX level at 10 uM incubated for 24 hrs in presence of 1 uM MRTX1133 by Western blot analysis; type: functional, cell-based
PANC-08-13 [15] = test: Antiproliferative activity against human PANC-08-13 cells assessed as inhibition of cell growth measured after 72 hrs by SRB assay; type: functional, cell-based
PANC-1 [16] = test: Effect on CK1alpha level in human PANC-1 cells at 0.008 to 10 uM measured after 8 hrs by western blot analysis; type: functional, cell-based; settings: dose 0.008-10 µM
ASPC1 [17] = test: Antiproliferative activity against human ASPC1 cells assessed as inhibition of cell growth measured after 72 hrs by SRB assay; type: functional, cell-based
Panc 02.03 [18] = test: Antiproliferative activity against human Panc 02.03 cells assessed as inhibition of cell growth measured after 72 hrs by SRB assay; type: functional, cell-based
PANC-1 [19] = test: Upregulation of gammaH2AX expression in human PANC-1 cells at 0.1 to 10 uM measured after 24 hrs by Western blot analysis; type: functional, cell-based; settings: dose 0.1-10 µM
[20] = target: T2, Protein cereblon/Histone-lysine N-methyltransferase EHMT1 (Homo sapiens); test: PROTAC activity at CRBN/GLP in human PANC-1 cells assessed as induction of GLP degradation at 1 uM measured after 8 to 24 hrs by Western blot analysis; type: cell-based; settings: time 8-24 hrs
PANC-1 [21] = test: Induction of apoptosis in human PANC-1 cells measured after 24 hrs by Annexin V-FITC/PI staining based flow cytometry analysis; type: functional, cell-based; settings: dose 5-12.5 µM
PANC-1 [22] = test: Effect on H3K79me3 level in human PANC-1 cells at 0.04 to 10 uM measured after 24 hrs by Western blot analysis; type: functional, cell-based; settings: dose 0.04-10 µM
[23] = target: T1, Protein cereblon/Histone-lysine N-methyltransferase EHMT2; test: PROTAC activity at CRBN/G9a in human PANC-1 cells assessed as induction of G9a degradation at 1 uM measured after 8 to 24 hrs by Western blot analysis; type: cell-based; settings: time 8-24 hrs
Target sequence in this assay (Q96KQ7 2-1210 limits assumed): as the sequence (Q96KQ7 2-1210 limits assumed) above
Target sequence in this assay (Q96SW2 whole entry partner): as the sequence (Q96SW2 whole entry partner) above

PANC-1 [24] = test: Effect on cell cycle arrest in human PANC-1 cells at 5 to 10 uM measured after 24 hrs by RNaseA/PI staining based flow cytometry analysis; type: functional; settings: dose 5-10 µM
PANC-1 [25] = test: Upregulation of cleaved PARP level in human PANC-1 cells at 0.1 to 10 uM measured after 24 hrs by Western blot analysis; type: functional, cell-based; settings: dose 0.1-10 µM
Panc1005 = test: Antiproliferative activity against human Panc1005 cells assessed as inhibition of cell growth measured after 72 hrs by SRB assay; type: functional, cell-based
[26] = target: T1, Protein cereblon/Histone-lysine N-methyltransferase EHMT2; test: PROTAC activity at CRBN/G9a in human PANC-1 cells assessed as induction of G9a degradation at 1 uM pretreated with UNC0638 for 2 hrs followed by compound addition and measured after 8 hrs by Western blot analysis; type: cell-based
Target sequence in this assay (Q96KQ7 2-1210 limits assumed): as the sequence (Q96KQ7 2-1210 limits assumed) above
Target sequence in this assay (Q96SW2 whole entry partner): as the sequence (Q96SW2 whole entry partner) above

ASPC1 [27] = test: Synergistic antiproliferative activity against human ASPC1 cells assessed as combination index for ED90 upto 20 uM incubated for 72 hrs in presence of MRTX1133; type: functional
PANC-1 [28] = test: Effect on H3K27me1 level in human PANC-1 cells at 0.04 to 10 uM measured after 24 hrs by Western blot analysis; type: functional, cell-based; settings: dose 0.04-10 µM
PANC-1 [29] = test: Induction of apoptosis in human PANC-1 cells at 10 uM by Annexin V-FITC/PI staining based flow cytometry analysis; type: functional, cell-based; settings: time 12-72 hrs, TDE = time-dependent effect
PANC-1 [30] = test: Effect on H3K4me1 level in human PANC-1 cells at 0.04 to 10 uM measured after 24 hrs by Western blot analysis; type: functional, cell-based; settings: dose 0.04-10 µM
ASPC1 [31] = test: Sensitization of human ASPC1 cells to MRTX1133 assessed as upregulation of cleaved PARP level at 10 uM incubated for 24 hrs in presence of 1 uM MRTX1133 by Western blot analysis; type: functional, cell-based
[32] = target: T1, Protein cereblon/Histone-lysine N-methyltransferase EHMT2; test: PROTAC activity at CRBN/G9a in human PANC-1 cells assessed as induction of G9a degradation measured after 8 hrs by Western blot analysis; type: cell-based
HPAF-II [33] = test: Synergistic antiproliferative activity against human HPAF-II cells assessed as combination index upto 20 uM incubated for 72 hrs in presence of MRTX1133; type: functional
PANC-08-13 [34] = test: Synergistic antiproliferative activity against human PANC-08-13 cells assessed as combination index upto 20 uM incubated for 72 hrs in presence of MRTX1133; type: functional

T2 sequence (Q96SW2 whole entry, looked up): as the sequence (Q96SW2 whole entry partner) above
T2 sequence (Q9H9B1 whole entry, looked up): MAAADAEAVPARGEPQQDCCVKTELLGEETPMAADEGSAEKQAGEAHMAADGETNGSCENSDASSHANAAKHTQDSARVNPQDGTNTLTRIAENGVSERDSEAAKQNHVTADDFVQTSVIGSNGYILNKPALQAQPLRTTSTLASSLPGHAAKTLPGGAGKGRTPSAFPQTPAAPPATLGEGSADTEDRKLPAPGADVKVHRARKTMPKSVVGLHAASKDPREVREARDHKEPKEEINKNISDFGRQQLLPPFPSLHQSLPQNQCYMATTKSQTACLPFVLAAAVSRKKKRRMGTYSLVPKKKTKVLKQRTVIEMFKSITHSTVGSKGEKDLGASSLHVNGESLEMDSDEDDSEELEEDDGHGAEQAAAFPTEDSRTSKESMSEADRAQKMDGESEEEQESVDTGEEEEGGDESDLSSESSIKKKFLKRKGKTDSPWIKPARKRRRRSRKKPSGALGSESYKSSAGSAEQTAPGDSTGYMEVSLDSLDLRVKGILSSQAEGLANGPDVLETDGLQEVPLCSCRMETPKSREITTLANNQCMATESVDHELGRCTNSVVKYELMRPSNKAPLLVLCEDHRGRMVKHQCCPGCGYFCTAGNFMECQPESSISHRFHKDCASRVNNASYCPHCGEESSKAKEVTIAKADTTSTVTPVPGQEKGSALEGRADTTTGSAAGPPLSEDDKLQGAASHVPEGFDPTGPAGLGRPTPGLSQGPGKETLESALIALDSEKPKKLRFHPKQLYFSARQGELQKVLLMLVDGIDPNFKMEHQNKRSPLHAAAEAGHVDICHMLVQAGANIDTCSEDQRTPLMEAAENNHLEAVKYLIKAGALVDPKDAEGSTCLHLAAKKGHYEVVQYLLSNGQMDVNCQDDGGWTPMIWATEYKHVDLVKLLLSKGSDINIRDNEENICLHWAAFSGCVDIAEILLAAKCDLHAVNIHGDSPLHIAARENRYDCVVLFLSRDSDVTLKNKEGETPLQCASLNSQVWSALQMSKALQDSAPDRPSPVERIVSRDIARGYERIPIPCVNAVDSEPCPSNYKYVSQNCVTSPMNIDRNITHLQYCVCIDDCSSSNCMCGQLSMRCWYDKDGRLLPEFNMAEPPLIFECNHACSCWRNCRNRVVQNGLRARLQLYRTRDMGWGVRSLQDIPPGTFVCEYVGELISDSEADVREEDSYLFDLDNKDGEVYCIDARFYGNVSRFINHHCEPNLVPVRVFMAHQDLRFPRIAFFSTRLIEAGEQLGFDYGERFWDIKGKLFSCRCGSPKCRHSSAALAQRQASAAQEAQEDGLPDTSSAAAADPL

With `COc1cc2c(NC3CCN(CCCC(=O)NCCCCCCCCNc4cccc5c4C(=O)N(C4CCC(=O)NC4=O)C5=O)CC3)nc(C3CCCCC3)nc2cc1OCCCN1CCCC1` (configuration not stated) the Activity (ASPC1 [1]) was “Active”, the Activity [2] was “Active” and the Activity [3] was “inactive”. For the same compound, the Activity (PANC-1 [4]) was “Active”, the CI (KP-4 [5]) was under 0.4 and the CI (Panc 02.03 [6]) was under 0.8. For the same compound, the Activity (Panc 04.03) was “Active”, the Activity (ASPC1 [7]) was “Active” and the Activity (PANC-1 [8]) was “inactive”. The Activity [9] was “inactive”, the bioavailability [10] was 40.6% and the Activity (KP-4 [11]) was “Active”. The Activity [12] was “inactive”, the Activity (HPAF-II [13]) was “Active” and the Activity (ASPC1 [14]) was “Active”. The Activity (PANC-08-13 [15]) was “Active”, the Activity (PANC-1 [16]) was “inactive” and the Activity (ASPC1 [17]) was “Active”. The Activity (Panc 02.03 [18]) was “Active”, the Activity (PANC-1 [19]) was “Active” and the Activity [20] was “inactive”. For the same compound, the Activity (PANC-1 [21]) was “Dose-Dependent Effect”, the Activity (PANC-1 [22]) was “inactive” and the Activity [23] was “Active”. For the same compound, the Activity (PANC-1 [24]) was “Active”, the Activity (PANC-1 [25]) was “Active” and the Activity (Panc1005) was “Active”. The Activity [26] was “inactive”, the CI (ASPC1 [27]) was under 0.4 and the Activity (PANC-1 [28]) was “inactive”. The Activity (PANC-1 [29]) was “Tde”, the Activity (PANC-1 [30]) was “inactive” and the Activity (ASPC1 [31]) was “Active”. The Activity [32] was “Dose-Dependent Effect”, the DC50 [32] was 100 nM and the CI (HPAF-II [33]) was under 0.8. For the same compound, the CI (PANC-08-13 [34]) was under 0.8.
